Laboratory results taken from PMC10404610 (Biochemistry and Biophysics Reports, 2023).
No end group written: not given here.

How the values were obtained:
CCL21 [1] = target: T1, CCL21 (Homo sapiens, UniProt O00585); assay: 2D 15N-1H HSQC NMR titration of [U-15N] CCL21 with PSGL1 1–15 peptide; format: binding
T1 sequence (O00585 24-134): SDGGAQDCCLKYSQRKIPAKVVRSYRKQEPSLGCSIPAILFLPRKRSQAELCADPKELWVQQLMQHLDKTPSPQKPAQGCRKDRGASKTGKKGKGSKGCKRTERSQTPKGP

CCL21 [2] = target: CCL21 (UniProt O00585); assay: NMR titration

Kd (CCL21 [2])	Substance	Kd (CCL21 [1])
–	QTAEYEYLDYDFLPE [PSGL1 peptide]	300 ± 100 µM
300 µM	PSGL1 residues 1-15 peptide	–
